We go through 1 molecule from patent US20100255089A1, “Pharmaceutical Compositions and Methods of Using Same” (priority 2006, published 2010).

The nature of this data set: physchem. Conditions: simulated gastric fluid.

Protocol: In an uncapped vial, one part of the compound of Formula I is mixed with three, four, six, or nine parts polyvinylpyrrolidone (PVP-25/Kollidon 25), respectively. The mixture is dissolved in a sufficient amount of a mixture of acetone and ethanol, until all powders were in solution. The uncapped vial is placed into a vacuum oven set at 40° C., and let dry for at least 24 hours.
After that treatment, an amorphous state of the powder is achieved, which could be identified, e.g. by X-ray diffraction measurements or by determination of the solubility.

With `Cc1cc(C)c2c3ccccc3n(Cc3ccc([C@@H](C(=O)N[C@@H](CO)c4ccccc4)C4CCCC4)cc3)c2n1` [compound of Formula I, (2S)-2-cyclopentyl-2-(4-((2,4-dimethyl-9H-pyrido(2,3-B)indol-9-yl)methyl)-phenyl)-N-((1R)-2-hydroxy-1-phenylethyl)acetamide], the solubility was 0.1 µg/mL.
